test: Agilent InfinityLab Poroshell 120 SB-C18, 100 × 2.1 mm, 2.7 µm, 40 °C, 0.2 mL/min, estimated dead time 1.1 min; A: water + 0.1% formic acid; B: acetonitrile; gradient (min/%B) 0/2 15/95 16/95; details: stereoisomer not certain

LC retention time [min] | Structure (SMILES)
12.7 | CCCCCCCCCC=CC(=O)O
4.62 | Nc1ccn(C2CC(O)C(COP(=O)(O)OP(=O)(O)OP(=O)(O)O)O2)c(=O)n1 (stereo unspecified)
1.34 | NC(CC(=O)O)C(=O)O (stereo unspecified)
1.62 | O=C(O)C(=O)Cc1ccccc1
8.32 | NC(=O)c1ncn(C2OC(COP(=O)(O)O)C(O)C2O)c1N (stereo unspecified)
8.91 | CCCCCC=CCC=CC=CC=CC(SCC(N)C(=O)NCC(=O)O)C(O)CCCC(=O)O (stereo unspecified)
6.12 | CCCCCCCCCC(O)CC(=O)O (stereo unspecified)
3.76 | OCC(O)CO
13.5 | NCC(=O)NC1OC(COP(=O)(O)O)C(O)C1O (stereo unspecified)
2.94 | CCC(C)C(N)C(=O)O (stereo unspecified)
2.51 | CC(=O)C(=O)O
2.1 | NC(CCC(=O)NC(CS)C(=O)NCC(=O)O)C(=O)O (stereo unspecified)
2.51 | O=C(O)C1CC(O)C=N1 (stereo unspecified)
4.45 | O=C(O)CC(O)C(=O)O (stereo unspecified)
1.48 | CC(O)C=O (stereo unspecified)
13 | O=c1ccn(C2OC(COP(=O)(O)OP(=O)(O)O)C(O)C2O)c(=O)[nH]1 (stereo unspecified)
5.47 | CC(=O)NC1C(OP(=O)(O)OP(=O)(O)OCC2OC(n3ccc(=O)[nH]c3=O)C(O)C2O)OC(CO)C(O)C1O (stereo unspecified)
3.78 | CC(O)(CC(=O)O)CC(=O)SCCNC(=O)CCNC(=O)C(O)C(C)(C)COP(=O)(O)OP(=O)(O)OCC1OC(n2cnc3c(N)ncnc32)C(O)C1OP(=O)(O)O (stereo unspecified)
1.41 | O=C(O)C1CCCN1 (stereo unspecified)
14.7 | CC(CCCC(CO)COS(=O)(=O)O)C1CCC2C3C(O)CC4CC(O)CCC4(C)C3CC(O)C12C (stereo unspecified)
2.94 | CC(=O)NC1C(O)OC(CO)C(O)C1O (stereo unspecified)
2.36 | CCCCCCCCCCCCCC=CC(O)C(COC1OC(CO)C(OC2OC(CO)C(O)C(O)C2O)C(O)C1O)NC(=O)CCCCCCCCCCCCCCCCCCCCC (stereo unspecified)
12.4 | CCCC(O)CC(=O)O (stereo unspecified)
1.62 | CC(C)CCC=O
1.37 | COc1cc(C(O)C(=O)O)ccc1O (stereo unspecified)
2.87 | NC(CCC(=O)NC(CSSCC(NC(=O)CCC(N)C(=O)O)C(=O)NCC(=O)O)C(=O)NCC(=O)O)C(=O)O (stereo unspecified)
6.53 | O=C(O)CCC(=O)O

LC retention time [min] | Structure (SMILES)
2.87 | Nc1ncnc2c1ncn2C1OC(COP(=O)(O)OP(=O)(O)O)C(O)C1O (stereo unspecified)
1.37 | CC(=O)NC1C(O)OC(COP(=O)(O)O)C(O)C1O (stereo unspecified)
10.1 | O=c1ccn(C2OC(COP(=O)(O)OP(=O)(O)OP(=O)(O)O)C(O)C2O)c(=O)[nH]1 (stereo unspecified)
1.62 | C=C(CC)C(=O)O
1.37 | O=P(O)(O)OCC1OC(O)C(O)C(O)C1O (stereo unspecified)
11.7 | CC(=O)SCCNC(=O)CCNC(=O)C(O)C(C)(C)COP(=O)(O)OP(=O)(O)OCC1OC(n2cnc3c(N)ncnc32)C(O)C1OP(=O)(O)O (stereo unspecified)
1.34 | O=C(CO)C(O)C(O)C(O)COP(=O)(O)O (stereo unspecified)
6.01 | CC(C)CC(N)C(=O)O (stereo unspecified)
4.1 | OCC1OC(OC2(CO)OC(CO)C(O)C2O)C(O)C(O)C1O (stereo unspecified)
2.46 | NC(=O)c1cccnc1
2.87 | NCC(=O)O
8.58 | NC(=O)C1=CN(C2OC(COP(=O)(O)OP(=O)(O)OCC3OC(n4cnc5c(N)ncnc54)C(OP(=O)(O)O)C3O)C(O)C2O)C=CC1 (stereo unspecified)
4.62 | Nc1ncnc2c1ncn2C1OC(CO)C(O)C1O (stereo unspecified)
1.62 | NC1C(O)OC(CO)C(O)C1O (stereo unspecified)
5.19 | Nc1nc2c(ncn2C2CC(O)C(CO)O2)c(=O)[nH]1 (stereo unspecified)
2.51 | O=c1[nH]cnc2nc[nH]c12
4.1 | Nc1ccn(C2CC(O)C(CO)O2)c(=O)n1 (stereo unspecified)
1.45 | NCCCCNCCCN
15.1 | CCCCCCCCCCCCCC=CC(O)C(N)CO (stereo unspecified)
3.37 | CC(O)C(=O)O (stereo unspecified)
11.7 | Nc1nc2c(ncn2C2CC(O)C(COP(=O)(O)OP(=O)(O)O)O2)c(=O)[nH]1 (stereo unspecified)
13.3 | CCCCCC(O)C=CC1C(O)CC(=O)C1CC=CCCCC(=O)O (stereo unspecified)
8.32 | O=C(O)c1cc(=O)[nH]c(=O)n1C1OC(COP(=O)(O)O)C(O)C1O (stereo unspecified)
15.6 | CCCCCCCCCCCCCCCC(=O)OC(CC(=O)[O-])C[N+](C)(C)C (stereo unspecified)
14.7 | Cc1cn(C2CC(O)C(CO)O2)c(=O)[nH]c1=O (stereo unspecified)
8.13 | CC=CC(=O)O
12 | OCC1OC(O)C(O)C(O)C1O (stereo unspecified)

Structure (SMILES) | LC retention time [min]
NC(=O)c1ncn(C2OC(COP(=O)(O)O)C(O)C2O)c1NC=O (stereo unspecified) | 1.34
CC12CCC3C(CCC4=CC(=O)CCC43CO)C1CCC2=O (stereo unspecified) | 6.37

From the RepoRT retention time repository
